Source: paper PMC9223764, “In Vitro Selection and Characterization of HIV-1 Variants with Increased Resistance to LP-40, Enfuvirtide-Based Lipopeptide Inhibitor” (International Journal of Molecular Sciences, 2022)
Where two headings read alike, the source gives them in different places. Where a SMILES comes first, the peptide text is derived from it. The star is where a group is joined. Palmitoyl = CCCCCCCCCCCCCCCC(=O)*

What was measured:
[1] = tested on: HIV-1 NL4-3 gp41 I69V pseudovirus; assay type: cell-based; conditions: for Fold change in IC50: I69V relative to WT NL4-3
HIV-1 NL4-3 = assay: In vitro selection of resistant virus, dose-escalating passages in C8166 cells; assay type: cell-based; conditions: 1.5- to 2-fold increase per passage, start 0.5 µM T20, 0.04 µM LP-40
Protocol: To determine the resistance profile of LP-40, LP-40-resistant variants were selected using a dose-escalating method. The selection for drug-resistant HIV-1NL4-3 commenced with a concentration of 0.04 µM LP-40 (Figure 2B). Finally, after 32 passages, the induced concentration of LP-40 reached 200 µM. […] As shown in passage 9 (P-9), the concentration of LP-40 was 0.3 µM, and it can be observed that isoleucine was replaced by threonine at position 37 in the gp41 NHR coding region (I37T). G86D and C87Y were observed; at position 119 (E 119 G) in the gp41 CHR coding region, glutamate was replaced by glycine; at position 126 (N 126 K), asparagine was replaced by lysine. In P-24, the concentration of LP-40 was 8 µM; I37T in the NHR coding region was still present, and A15V, A21T, and L57H were also present, and N126K at position 126 in the CHR coding region was still present. In P-26, the concentration of LP-40 was 20 µM; at L33S, position 33 in the NHR coding region, leucine was replaced by serine and I37T remained. Additionally, a combination of mutations—E109N, N113D, E119Q, D121E, N125E, S129D, H132Y, and S133N (abbreviated as […])—appeared in the coding region of CHR. At a concentration of 200 µM, in addition to L33S and I37T, D36G, V38A, V38T, N42T, and I69V appeared in the NHR coding region, and a combination of the above eight mutations still existed in the CHR coding region. […]

NL4-3D36G virus = conditions: single infection inhibition experiment; cited from earlier work
Protocol: However, it requires frequent and high doses (90 mg, twice a day), and resistance is easily acquired. The TRM of the T20 carboxy-terminal, also known as the MPER (membrane proximal external region), is rich in […] sequences ([…]). Therefore, it is highly hydrophobic (Figure 1).

## CCCCCCCCCCCCCCCC(=O)NCCCC[C@H](NC(=O)[C@H](CC(=O)O)NC(=O)[C@H](CC(C)C)NC(=O)[C@H](CCC(=O)O)NC(=O)[C@H](CC(C)C)NC(=O)[C@H](CC(C)C)NC(=O)[C@H](CCC(=O)O)NC(=O)[C@H](CCC(N)=O)NC(=O)[C@H](CCC(=O)O)NC(=O)[C@H](CC(N)=O)NC(=O)[C@H](CCCCN)NC(=O)[C@H](CCC(=O)O)NC(=O)[C@H](CCC(N)=O)NC(=O)[C@H](CCC(N)=O)NC(=O)[C@H](CC(N)=O)NC(=O)[C@H](CCC(N)=O)NC(=O)[C@H](CO)NC(=O)[C@H](CCC(=O)O)NC(=O)[C@H](CCC(=O)O)NC(=O)[C@@H](NC(=O)[C@H](CC(C)C)NC(=O)[C@H](CO)NC(=O)[C@H](Cc1c[nH]cn1)NC(=O)[C@@H](NC(=O)[C@H](CC(C)C)NC(=O)[C@H](CO)NC(=O)[C@@H](NC(=O)[C@H](Cc1ccc(O)cc1)NC(C)=O)[C@@H](C)O)[C@@H](C)CC)[C@@H](C)CC)C(N)=O [LP-40] (Ac-YTSLIHSLIEESQNQQEKNEQELLELDK(Palmitoyl)-NH2)
[1]; Table 2
  Fold change in IC50: 0.93 fold
[1]; Table 3
  Fold change in IC50: 1.08 fold
[1]; I69V, Table 2, TZM-bl cells, 48 h, luciferase, mean ± SD, triplicate, repeated three times
  IC50: 29.4 ± 4.59 nM
HIV-1 NL4-3
  Induced inhibitor concentration reached after 32 passages: 200 µM
NL4-3D36G virus
  Improvement of antiviral IC50 compared to T20: approximately seven-fold
